This is an account of results in patent publication US6844312B2, “Production of tyrosine hydroxylase positive neurons” (Stem Cell Therapeutics Inc., priority 2001, dated 2005).

This experiment deals with neural stem cells. Nature of the experiment: Effect of PACAP in lieu of forskolin in the TH cocktail on neural stem cell culture. The format is cell-based, mice. Particulars: 2 nM PACAP versus 1 μM forskolin in the TH cocktail. The protocol:
A control experiments using 1 μM forskolin and no PACAP was performed in parallel as a comparison.

“pituitary adenylate cyclase activating polypeptide [PACAP]”: the “effectiveness in the production of TH positive neurons” value is “more effective than forskolin”.
